Active and inactive are the calls of the source. The rule behind the calls is not given here.
Key:
Felis catus [1] = organism: Felis catus; assay: Sedative activity in cat; format: functional, organism-based
Mus musculus [2] = organism: Mus musculus; assay: Taming activity in mouse assessed as suppression of electrical current-induced aggressive behavior by foot-shock test; format: functional
Mus musculus [3] = organism: Mus musculus; assay: Sedative activity in mouse; format: functional
Mus musculus [4] = organism: Mus musculus; assay: Anticonvulsion activity in mouse assessed as protection against pentylenetetrazole-induced convulsion; format: functional
Felis catus [5] = organism: Felis catus; assay: Muscle relaxant activity in cat suspended by scruff of neck assessed as relaxation of body and hind legs; format: functional
Mus musculus [6] = organism: Mus musculus; assay: Muscle relaxant activity in mouse; format: functional

Row | Structure (SMILES) | Activity (Felis catus [1]) | log(1/MED) (Mus musculus [2]) | log(1/ED50) (Mus musculus [3]) | Activity (Mus musculus [4]) | Activity (Felis catus [5]) | log(1/ED50) (Mus musculus [6]) | Activity (Mus musculus [2]) | Activity (Mus musculus [3]) | Activity (Mus musculus [6]) | log(1/ED50) (Mus musculus [4]) | log(1/MED) (Felis catus [5])
1 | O=C1CN=C(c2ccccc2)c2ccccc2N1 [RO-052921] | inactive | 0.3729 | 0.1968 | inactive | inactive | 0.1968 |  |  |  |  | 
2 | O=C1CN=C(c2ccc(F)cc2)c2cc(Cl)ccc2N1 | inactive |  |  | inactive | inactive |  | inactive | inactive | inactive |  | 
3 | O=C1CN=C(c2ccc(Cl)cc2Cl)c2cc(Cl)ccc2N1 | inactive |  |  |  | inactive |  | inactive | inactive | inactive | -0.3724 | 
4 | CN1C(=O)CN=C(c2ccccc2F)c2ccccc21 [RO-054520] |  | 0.8261 | 0.1271 |  |  | 0.1271 |  |  |  | 1.525 | 2.4281
5 | O=C1CN=C(c2ccccc2)c2cc(Cl)cc(Cl)c2N1 |  |  | 0.3081 |  |  | 0.3081 | inactive |  |  | 1.5651 | 2.1831
6 | CN(C)c1ccc2c(c1)C(c1ccccc1Cl)=NCC(=O)N2C |  | 0.6121 | 0.3391 |  |  | 0.3391 |  |  |  | 2.8162 | 1.9131
7 | CN1C(=O)CN=C(c2ccccc2F)c2cc([N+](=O)[O-])ccc21 [FLUNITRAZEPAM] |  | 2.5925 | 2.4955 |  |  | 2.4955 |  |  |  | 2.4164 | 4.1945

Reference: ChEMBL document CHEMBL3272278, “Electronic factors in the structure-activity relationship of some 1,4-benzodiazepin-2-ones” (1977)
